Experimental findings from patent US9556222B2, “A-ring epoxidized triterpenoid-based anti-inflammation modulators and methods of use thereof” (priority 2012, dated 2017) are described below.

SMILES strings stand for the structures.

In the first assay the test system is IFNγ-induced NO production in RAW264.7 mouse macrophages. Briefly: Suppression of IFNγ-induced NO production in RAW264.7 (Griess, normalized to WST-1 viability). The conditions noted are these: RAW264.7, 2 h pre-treatment (0-200 nM dose range), IFNγ 24 h, normalized to cell viability. The assay is classed as cell-based. The method, then:
On the next day, cells were pre-treated with DMSO or drug (0-200 nM dose range) for 2 hours, and then treated with recombinant mouse IFNγ (R&D Systems) for 24 hours. Nitric Oxide concentration in media was determined using the Griess reagent system (Promega). Cell viability was determined using WST-1 reagent (Roche). IC50 values were determined based on the suppression of IFNγ induced Nitric Oxide production normalized to cell viability.
Consider `C[C@@H]1C(=O)[C@]2(C#N)O[C@@H]2[C@]2(C)C3=CC(=O)[C@@H]4[C@@H]5CC(C)(C)CC[C@]5(NC(=O)C(C)(F)F)CC[C@@]4(C)[C@]3(C)CC[C@@H]12` [TX63946], for which the half-maximal inhibitory concentration (IC50) was determined as 0.6 nM.
`CC1(C)CC[C@]2(CO)CC[C@]3(C)[C@H](C(=O)C[C@@H]4[C@@]5(C)[C@H]6O[C@@]6(C#N)C(=O)C(C)(C)[C@@H]5CC[C@]43C)[C@@H]2C1` [TX63966]: the IC50 was determined as 52 nM.
On the same count and under the same terms, for `CC1(C)CC[C@]2(C#N)CC[C@]3(C)[C@H](C(=O)C[C@@H]4[C@@]5(C)[C@H]6O[C@@]6(C#N)C(=O)C(C)(C)[C@@H]5CC[C@]43C)[C@@H]2C1` [TX63967] the value was 24 nM; for `CC1(C)CC[C@]2(C(=O)NCC(F)(F)F)CC[C@]3(C)[C@H](C(=O)C=C4[C@@]5(C)[C@H]6O[C@@]6(C#N)C(=O)C(C)(C)[C@@H]5CC[C@]43C)[C@@H]2C1` [TX63158], 16 nM; for `CC[C@]12CCC(C)(C)C[C@H]1[C@H]1C(=O)C=C3[C@@]4(C)[C@H]5O[C@@]5(C#N)C(=O)C(C)(C)[C@@H]4CC[C@@]3(C)[C@]1(C)CC2` [TX63539], 14 nM.
Still for that read-out and setting: with `CN(C)C(=O)N[C@]12CCC(C)(C)C[C@H]1[C@H]1C(=O)C=C3[C@@]4(C)[C@H]5O[C@@]5(C#N)C(=O)C(C)(C)[C@@H]4CC[C@@]3(C)[C@]1(C)CC2` [TX63924] the figure was 45 nM; with `Cc1nnc([C@]23CCC(C)(C)C[C@H]2[C@H]2C(=O)C=C4[C@@]5(C)[C@H]6O[C@@]6(C#N)C(=O)C(C)(C)[C@@H]5CC[C@@]4(C)[C@]2(C)CC3)o1` [TX63947], 2.5 nM; with `CC1(C)CC[C@]2(C(=O)O)CC[C@]3(C)[C@H](C(=O)C=C4[C@@]5(C)[C@H]6O[C@@]6(C#N)C(=O)C(C)(C)[C@@H]5CC[C@]43C)[C@@H]2C1` [TX63160], 30 nM.
Same read-out and setting: for `COC(=O)[C@]12CCC(C)(C)C[C@H]1[C@H]1C(=O)C=C3[C@@]4(C)[C@H]5O[C@@]5(Br)C(=O)C(C)(C)[C@@H]4CC[C@@]3(C)[C@]1(C)CC2` [TX63392] the value was > 200 nM; for `CC1(C)CC[C@]2(C(=O)NCC(F)(F)F)CC[C@]3(C)[C@H](C(=O)C[C@@H]4[C@@]5(C)[C@H]6O[C@@]6(C#N)C(=O)C(C)(C)[C@@H]5CC[C@]43C)[C@@H]2C1` [TX63241], > 200 nM.
On to `CC1(C)CC[C@]2(C(=O)n3ccnc3)CC[C@]3(C)[C@H](C(=O)C=C4[C@@]5(C)[C@H]6O[C@@]6(C#N)C(=O)C(C)(C)[C@@H]5CC[C@]43C)[C@@H]2C1` [TX63960], for which the IC50 worked out at 2.9 nM.
Same read-out and setting: for `COC(=O)[C@]12CCC(C)(C)C[C@H]1[C@H]1C(=O)C=C3[C@]4(C)[C@@H](CC[C@@]3(C)[C@]1(C)CC2)C(C)(C)C(=O)[C@]1(C(N)=O)O[C@@H]14` [TX63315] the value was > 200 nM; for `COC(=O)[C@]12CCC(C)(C)C[C@H]1[C@H]1C(=O)C[C@@H]3[C@@]4(C)[C@H]5O[C@@]5(C#N)C(=O)C(C)(C)[C@@H]4CC[C@@]3(C)[C@]1(C)CC2` [TX63210], 44 nM.
Same read-out and setting: for `COC(=O)[C@]12CCC(C)(C)C[C@H]1[C@H]1C(=O)C[C@@H]3[C@@]4(C)[C@H]5O[C@@]5(C#N)C(=O)[C@@H](C)[C@@H]4CC[C@@]3(C)[C@]1(C)CC2` [TX63813] the value was 6.6 nM.
The same measure, in the same setting: with `CCNC(=O)[C@]12CCC(C)(C)C[C@H]1[C@H]1C(=O)C=C3[C@@]4(C)[C@H]5O[C@@]5(C#N)C(=O)C(C)(C)[C@@H]4CC[C@@]3(C)[C@]1(C)CC2` [TX63100] the figure was 23 nM; with `COC(=O)N[C@]12CCC(C)(C)C[C@H]1[C@H]1C(=O)C=C3[C@@]4(C)[C@H]5O[C@@]5(C#N)C(=O)C(C)(C)[C@@H]4CC[C@@]3(C)[C@]1(C)CC2` [TX63654], 6.5 nM; with `COC(=O)[C@]12CCC(C)(C)C[C@H]1[C@H]1C(=O)C=C3[C@@]4(C)[C@H]5O[C@H]5C(=O)C(C)(C)[C@@H]4CC[C@@]3(C)[C@]1(C)CC2` [TX63211], > 200 nM.
As to `COC(=O)[C@]12CCC(C)(C)C[C@H]1[C@H]1C(=O)C=C3[C@]4(C)[C@@H](CC[C@@]3(C)[C@]1(C)CC2)C(C)(C)C(=O)[C@@]1(C#N)O[C@@H]41` [TX63212], the half-inhibitory concentration (IC50) stood at 1.6 nM.
Same read-out and setting: with `CC1(C)CC[C@]2(NC(=O)C(C)(F)F)CC[C@]3(C)[C@H](C(=O)C=C4[C@@]5(C)[C@H]6O[C@@]6(C#N)C(=O)C(C)(C)[C@@H]5CC[C@]43C)[C@@H]2C1` [TX63647] the figure was 15 nM.
The same measure, in the same setting: with `CCNC(=O)[C@]12CCC(C)(C)C[C@H]1[C@H]1C(=O)C=C3[C@@]4(C)[C@H]5O[C@@]5(C#N)C(=O)[C@@H](C)[C@@H]4CC[C@@]3(C)[C@]1(C)CC2` [TX63962] the figure was 1.1 nM; with `COC(=O)[C@]12CCC(C)(C)C[C@H]1[C@H]1C(=O)C=C3[C@@]4(C)[C@H]5O[C@@]5(C#N)C(=O)C(C)(C)[C@@H]4CC[C@@]3(C)[C@]1(C)CC2` [TX63098], 2.3 nM; with `CC1(C)CC[C@]2(CO)CC[C@]3(C)[C@H](C(=O)C=C4[C@@]5(C)[C@H]6O[C@@]6(C#N)C(=O)C(C)(C)[C@@H]5CC[C@]43C)[C@@H]2C1` [TX63537], 1.5 nM.

The test system is the same in another assay. In words: Nitric oxide production and cell viability protocol used for TX64343 (RAW264.7, Griess, Cell Titer-Glo). Format: cell-based. The conditions noted are these: slightly different assay procedure: DMEM+10% FBS, 0-30 μM or 0-3 μM dose range, IFNγ 24 h. The method, then: On the next day, cells were pre-treated with DMSO or drug (0-30 μM or 0-3 μM dose range) for 2 hours, and then treated with IFNγ for 24 hours. Nitric Oxide concentration in media was determined using the Griess reagent system (Promega). Cell viability was determined using Cell Titer-Glo (Promega). IC50 values were determined based on the suppression of IFNγ induced Nitric Oxide production.
As to `CNC(=O)CC[C@]12CCC(C)(C)C[C@H]1[C@H]1C(=O)C=C3[C@@]4(C)[C@H]5O[C@@]5(C#N)C(=O)C(C)(C)[C@@H]4CC[C@@]3(C)[C@]1(C)CC2` [TX64343], the midpoint of inhibition, the IC50, lay at 20.1 nM.
